Data reported in patent US20110251128A1, “THYMOSIN Beta4 PEPTIDES PROMOTE TISSUE REGENERATION” (The Board of Regents of the University of Texas System, priority 2010, published 2011).
Entries after “also recorded” stand apart in the source; their conditions may differ.

Legend:
myocardial cells = experiment: Beating frequency of myocardial cells in embryonic cardiac explants on collagen gel; format: cell-based, mouse; conditions: 300 ng peptide or 100 ng TB4; normalized to PBS and TB4 controls (TB4 = 100.00)
Protocol: In vitro embryonic cardiac cell migration assay. The outflow tract of the heart was dissected from E11.5 wild-type mouse embryos and placed on rat-tail collagen matrix (Roche) endothelial layer facing down as described (Bock-Marquette et al., 2004; Runyan and Markwald, 1983). After 10 h of attachment, three independent explants were incubated with 300 ng of peptide #1-17, 100 ng of TB4, or 3 μl PBS in […] OPTIMEM medium (Invitrogen/Gibco) respectively. Medium and protein were changed every two days. To monitor migration distance photos were taken daily using Nikon DXM1200F microscope at 4× magnification. Cell migration distance was quantified by ImageJ software (http at rsb.info.nih.gov/ij/) in three separate explants and three measurements for each treatment respectively. Beating frequency of myocardial cells was counted three times at 7-15 days of treatment. Calculations were normalized to PBS and TB4 treated positive and negative controls. After 15 days at 37° C. in 5% CO2, explants were fixed in 4% paraformaldehyde in PBS for 10 min at room temperature. Explants were stored at 4° C. in PBS for further immunocytochemical investigations.

Connexin43 = Connexin43 expression (Western blot) and localization (immunohistology) in infarcted hearts; format: in vivo, mouse
From the text: (§1) Animals and Surgical procedures. Mice: Myocardial infarctions were produced in seventy C57BL/6J male mice at 16 weeks of age (25-30 g) by ligation of the left anterior descending (LAD) coronary artery as described (Garner et al., 2003). All animal protocols were reviewed and approved by the University of Texas Southwestern Medical School Institutional Animal Care Advisory Committee and were in compliance with the rules governing animal use as published by the NIH. Mice were sedated in an isoflurane chamber (5%) for 60 seconds until self-designed coaxial mask could be safely applied. […] Effective doses of the peptides were calculated based on optimal in vitro cell migration effect and on biodistribution calculations of full length TB4 (Mora et al., 1997). […]
(§2) Western blot. […] The protein fraction was isolated from the interphase of the Trizol purification as recommended by the manufacturer; 10 μg of the total protein was loaded and analyzed by Western blot with protein-specific primary antibodies: VEGF, p-Marcks, p-Akt, and GAPDH (1:100) (Santa Cruz), Connexin43 (1:50) (Invitrogen), N-Cadherin (1:5000) (BD Biosciences) and pS368-Connexin43 (1:1000) (Cell Signaling Technology).
Immunohistochemistry. Adult mouse cardiac tissue was fixed in 4% paraformaldehyde and sections were analyzed by immunohistochemistry. […]

[1] = tested on: C57BL/6J male mice after coronary ligation; experiment: Myocardial infarction by LAD coronary ligation in adult mice: echocardiography, scar volume, myocyte size; format: in vivo, mouse
From the text: Animals and Surgical procedures. Mice: Myocardial infarctions were produced in seventy C57BL/6J male mice at 16 weeks of age (25-30 g) by ligation of the left anterior descending (LAD) coronary artery as described (Garner et al., 2003). All animal protocols were reviewed and approved by the University of Texas Southwestern Medical School Institutional Animal Care Advisory Committee and were in compliance with the rules governing animal use as published by the NIH. Mice were sedated in an isoflurane chamber (5%) for 60 seconds until self-designed coaxial mask could be safely applied. The mask supplied continuous isoflurane (2.0%) and oxygen (98.0%) under positive pressure from a Harvard small animal respirator throughout the procedures. Immediately after ligation mice were injected with 200 ng of peptide in […] or […] PBS in collagen intracardially in the infarction border, and with […] PBS intraperitoneally as described (Bock-Marquette et al., 2004). Intraperitoneal injections were repeated every three days after ligation. Effective doses of the peptides were calculated based on optimal in vitro cell migration effect and on biodistribution calculations of full length TB4 (Mora et al., 1997). The inventors administered buprenorphine (0.05 mg/kg) for post-operative pain control. Hearts were removed 1, 14 and 21 days after ligation and processed for further investigations.
Analysis of cardiac function by echocardiography: Echocardiograms to assess systolic function were performed using M-mode and 2-dimensional measurements as described previously (Garner et al., 2003). The measurements represented the average of six selected cardiac cycles from at least two separate scans performed in random-blind fashion with papillary muscles used as a point of reference for consistency in level of scan. End diastole was defined as the maximal left ventricle (LV) diastolic dimension and end systole was defined as the peak of posterior wall motion. Single outliers in each group were omitted for statistical analysis. Fractional shortening (FS), a surrogate of systolic function, was calculated from LV dimensions as follows: FS=[(EDD−ESD)/EDD]×100%. Ejection fraction (EF) was calculated as follows: EF=[(edd^3−esd^3)/edd^3]×100%. EDD, end diastolic dimension; ESD, end systolic dimension.
Calculation of scar volume and myocyte size: Scar volume was calculated after Masson's trichrome staining in six sections through the heart of each mouse using Openlab 3.03 software (Improvision) similar to previously described (Bock-Marquette et al., 2004). Percent area of collagen deposition was measured on each section in blinded fashion and averaged for each mouse.

[2] = tested on: Wt-1 positive cardiac progenitors; experiment: Immunohistochemistry, Wt-1 positive progenitor cells at infarction border; format: in vivo, mouse; conditions: border of the infarction, 21 days / three weeks after peptide injections
From the text: as §1, with “applied. The mask supplied continuous isoflurane (2.0%) and oxygen (98.0%) under positive pressure from a Harvard small animal respirator throughout the procedures.” for “applied.”
Immunohistochemistry. Adult mouse cardiac tissue was fixed in 4% paraformaldehyde and sections were analyzed by immunohistochemistry. […] Number of sm a-actin positive capillaries and Wt-1 positive cells were counted at the infarction border zone in high power photographs at all levels of the sections in three peptide, TB4 and PBS treated hearts respectively.

N-Cadherin = experiment: Western blot of N-Cadherin in infarcted hearts; format: in vivo, mouse; conditions: infarction core and border zone, 21 days after infarction
From the text: as §1, with “applied. The mask supplied continuous isoflurane (2.0%) and oxygen (98.0%) under positive pressure from a Harvard small animal respirator throughout the procedures.” for “applied.”
as §2

pS368-Cx43 = experiment: Western blot of pS368-Connexin43 in infarcted hearts; format: in vivo, mouse; conditions: ischemic border, 21 days, compared to PBS
From the text: as §1, with “applied. The mask supplied continuous isoflurane (2.0%) and oxygen (98.0%) under positive pressure from a Harvard small animal respirator throughout the procedures.” for “applied.”
as §2

[3] = 21 days after ligation, compared to PBS
[4] = three weeks after ligation, intracardiac once plus intraperitoneal every three days

Substance: Thymosin β4 [TB4]
- frequency of myocardial beating (myocardial cells): 100.00+/−5.03 beats/75 sec
- Cx43 localization (Connexin43; border zone of cardiac infarction): stayed primarily at the intercalated discs; also recorded: mainly localized to the intercalated discs
- Cx43 expression (Connexin43; infarcted cores, 21 days after infarction): significant increase in Cx43 expression; also recorded: significant increase in Cx43 level
- myocyte diameter / size in the ischemic area [1, 3]: increased myocyte diameter; also recorded: significantly increase the size of surviving cardiomyocytes
- scar (Masson's trichrome staining) [1, 3]: significant reduction of the scar
- end systolic diameter (ESD) ([1]; after three weeks): significantly decreased
- calculated ejection fraction (EF) [1, 4]: 50.9+/−3.6%
- mean fractional shortening (FS) [1, 4]: 87.4+/−2.6%
- number of Wt-1 positive cells [2]: increased significantly; also recorded: significant increase
- N-Cadherin expression (N-Cadherin): slight, but non-significant increase; also recorded: slightly upregulated
- pS368-Cx43 (Cx43 phosphorylation) (pS368-Cx43): significantly lower; also recorded: decrease in Cx43 phosphorylation
